The record followed here is US11203598B2, “Compounds for repressing cancer cell growth” (Institute For Cancer Research, priority 2018, dated 2021).

In data set [1] the test system is SW480 cells. The data set can be described thus: CellTiter-Glo luminescent cell viability assay. The format is cell-based, human. The following applies: for cell viability: dose dependent. How it is done:
Cells were seeded in 96-well plates at a density of 5×10^3 cells per well. 20 μL of CellTiter-Glo® Reagent was added directly to the wells, following the manufacturer's protocol, and bioluminescence signal was determined using an IVIS imaging system.
Cell lines at a concentration of 4×10^3 cells/well were seeded out on an opaque 96-well plate and treated with CB002 and Analog 11 in ranging doses starting from 200 μmol/L with DMSO controls. At 72 hours after treatment, cells were mixed with 30 μL Cell Titer-Glo reagent and after ten minutes of room temperature incubation were imaged using IVIS imaging system (Xenogen).
To begin establishing the potential of CB002 as a candidate therapeutic agent, its therapeutic index was determined by treating cancer (DLD-1, SW480, and RXF393) and normal (WI38 and MRC5) cell lines with concentrations of CB002 ranging from 0-500 μM for a period of 72 hours and assessing cell viability by the CellTiter-Glo® luminescence assay (see, FIG. 2). CB002 has a significant therapeutic index among the cells tested.
For orientation: In ATP-based viability assays light output follows the ATP content of the culture.

Data set [2] relates to SW480 cells. The data set can be described thus: CellTiter-Glo luminescent cell viability assay. In kind it is cell-based, human. The note with it: 24 hours.
The subject of data set [3] is p53 pathway proteins in SW480 cells. The data set can be described thus: Western blot of p53, p53 targets, apoptosis and autophagy markers. In kind it is cell-based, human. The following applies: for Noxa expression: 24 hour, 100 μM CB002, 25 NM Analog 4, 100 μM Analog 11; for mutant p53 protein level: varying doses, anti-p53 (DO-1). The protocol:
(§1) After treatment, cells were harvested by trypsinization, washed with PBS, and lysed with RIPA buffer (Sigma-Aldrich) for 30 minutes to 1 hour at 4° C. Protein lysates were spun down and supernatant was collected. Protein quantification was performed using a Pierce™ BCA Protein Assay Kit (Thermo Fisher Scientific). 1×NuPAGE® LDS sample buffer (Thermo Fisher Scientific) and 2-Mercaptoethanol as the reducing agent (Sigma-Aldrich) were added to protein lysates, followed by boiling for 15 minutes at 95° C. Equal total protein amounts samples were loaded into NuPAGE™ Novex™ 4-12% Bis-Tris Protein Gels (1.5 mm, Thermo Fisher Scientific) and gel eletrophoresis was performed with NuPAGE™ MES SDS Running Buffer. Proteins were transferred onto an Immobilon-P membrane (PVDF, EMD Millipore) using a Bio-Rad system with a 10% Tris-Glycine and 10% methanol transfer buffer diluted in distilled and deionized water. After transfer, membranes were blocked with 10% milk in TBST solution and then incubated overnight with primary antibody, washed with TBST and incubated with secondary antibody for 1 hour. Incubations were performed in 5% milk in TBST solution. Signal was detected by using a chemiluminescent detection kit, followed by autoradiography. The following antibodies were used: p53 (DO-1, 1:1000, Santa Cruz), p73 (1:1000, Bethyl Laboratories), p21 and NOXA (1:250, EMD Millipore), DR5, FADD, cleaved caspase 3, cleaved caspase 8, cleaved PARP, and LC3B (1:1000, Cell Signaling), and β-actin (1:10000, Sigma).
(§2) Proteins were isolated using NP40 Lysis Buffer (20 mmol/L Tris-HCl (pH 7.4), 150 mmol/L NaCl, 5 mmol/L EDTA, 50 mmol/L NaF, 1 mmol/L glycerophosphate, 5 mmol/L Na4P2O7, 0.5% NP40, and complete protease inhibitor cocktail (Roche)) and electrophoresed through 4-12% SDS-PAGE followed by semi-dry transfer to PVDF membranes. The PVDF membranes were incubated with different antibodies including p21 (OP64-100UG, EMD Millipore (world wide web at emdmillipore.com/US/en/product/Antip21WAF1-(Ab-1)-Mouse-mAb-(EA10), EMD_BIO-OP64)), PUMA (12450S, Cell Signaling Technology, world wide web at cellsignal.com/products/primary-antibodies/puma-d30c10-rabbit-mab/12450), DR5 (3696S, Cell Signaling Technology, world wide web at cellsignal.com/products/primary-antibodies/dr5-antibody/3696?N=4294956287&Ntt=3696s&fromPage=plp& requestid=541668), p53(sc-126, Santa Cruz, world wide web at scbt.com/scbt/fr/product/p53-antibody-do-1), and RAN (610341, BD Transduction Laboratories, world wide web at bdbiosciences.com/us/reagents/research/antibodies-buffers/cell-biologyreagents/cell-biology-antibodies/purified-mouse-anti-ran-20ran/p/610341) in blocking buffer at 4° C. overnight. Bound antibody will be detected using IRDye secondary antibodies (LI-COR Biosciences,) in Odyssey blocking buffer for 1 hour then imaged using the ODYSSEY infrared imaging system.
Background: Immunoblotting shows a protein as a band on a membrane.

The subject of data set [4] is SW480 cells. Description: apoptosis assay, sub-G1 analysis (propidium iodide, flow cytometry). The format is cell-based, human. The note with it: for sub-G1 fraction: dose dependent, over untreated controls. How it is done: Apoptotic cells were quantified by sub-G1 analysis. Cells were seeded at a density of 2.5×10^5 to 5×10^5 in a 6-well plate and treated for 48-72 hours. After treatment, adherent cells were trypsinized and collected along with floating cells, washed with PBS and fixed in 70% ethanol. Cells were then incubated in a Phosphate-citric acid buffer (0.2 M Na2HPO4+0.1 M Citric Acid, pH 7.8) at room temperature for 5 minutes, spun down and resuspended for staining with 50 μg/mL propidium iodide (PI) in the presence of 250 μg/mL pancreatic ribonuclease (RNase A). Sub-G1 analyses were performed using an Epics Elite Epics flow cytometer (Coulter-Beckman).
Cells were seeded out at 1×10^6 cells/well on six well plates and treated with CB002 and Analog 11 at ranging doses with DMSO controls. Cells were harvested after 72 hours of treatment, all cells including floating cells were fixed with ethanol and stained with Propidium Iodide and then analyzed using Epics Elite flow cytometer to measure the DNA content of the stained cells.
On the technique in general: A flow cytometer gives signals particle by particle.

Data set [5] concerns p53 targets in HCT116 p53-null cells. Description: Western blot of p53 targets. In kind it is cell-based, human. How it is done: as §1, §2
Data set [6] relates to p53 pathway proteins in p73 knockdown DLD-1 cells. Description: Western blot of p53 targets. In kind it is cell-based, human. The following applies: for p21 expression: 8 and 24 hours. How it is done:
as §1, §2

Data set [7] deals with cell cycle G2 checkpoint. The data set can be described thus: propidium iodide staining cell cycle analysis. In kind it is cell-based. The note with it: 24 hour treatment, alone and with etoposide. How it is done: Referring to FIG. 22 (panels A-F), propidium iodide staining cell cycle analysis for 24 hour treatment with DMSO (panel A), CB002 (panel B), CB002 and etoposide (panel C), etoposide (panel D), caffeine (panel E), and caffeine and etoposixe (panel F). […] The deregulation of the G2 checkpoint as a mechanism by caffeine prevents […] tumor cells that are treated with DNA damaging drugs, such as etoposide, from arresting to have time to repair, and thus sensitizes cancer cells to cell death.

Take `Cn1c(=O)c2c(nc(Nc3ccccc3)n2C)n(C)c1=O` [Analog 11, 8-anilino-1,3,7-trimethyl-3,7-dihydro-1Hpurine-2,6-dione]: the cell viability entry in data set [1] (72 hours) is listed as “reduced cell viability”. The “combination index with Irinotecan” value in data set [2] (0-100 μM Irinotecan with 0-200 μM Analog 11, CompuSyn) was “synergizes with Irinotecan”. In addition, the Noxa expression result in data set [3] was “Induction of Noxa expression”. For the same compound, the “mutant p53 protein level” value in data set [3] (24 hours) is “decrease moderately”. Also, the sub-G1 fraction result in data set [4] (72 hours) is given as “increased cells in sub-G1 fraction”. The p21 protein level result is reported as “increase moderately” in data set [5] (8 hours) and “no consistent difference” in data set [5] (24 hours). The PUMA protein level entry in data set [5] (8 hours, 25 μmol/L and 50 μmol/L) was “appeared to increase”; in data set [5] (24 hours), “slight decrease”. The p21 expression result in data set [6] is “absent”. In addition, the PUMA expression result in data set [6] (8 hours, over control) was “increased expression”; in data set [6] (24 hours), “reduction in PUMA”.

On to `Cn1c(=O)c2[nH]c(Nc3ccccc3)nc2n(C)c1=O` [CB002, 8-anilino-1,3-dimethyl-3,7-dihydro-1H-purine-2,6-dione], for which the “effect on cell cycle G2 checkpoint” value in data set [7] is “does not appear to deregulate the G2 cell cycle checkpoint”. The “combination index (CI), CB002 and CPT-11” value in data set [1] (72 hours) is recorded as “synergism”. Besides, the cell viability entry in data set [1] (72 hours) is “reduced cell viability”. Further, in data set [1] (72 hours, CI<1 indicates synergism), the “combination index (CI), CB002 and 5-FU” value is below 1.0. Moreover, the “cell viability, combination with 5-FU” value in data set [1] (CB002 (22 μM and 66 μM) with 5-FU (60 μg/ml), 72 hours, versus single agents) is “significantly reduced cell viability”. The “cell viability, combination with CPT-11” value in data set [1] (CB002 (66 μM) and CPT-11 (a series of doses), 72 hours, versus single agents) is reported as “significantly reduced cell viability”. For the same compound, in data set [1] (Homo sapiens, SW480, 72 hours, GraphPad), the 50% inhibitory concentration (IC50) – broadly, the midpoint of a concentration-inhibition curve – came out at 96.5 µM. Besides, the “combination index with Ganetespib” value in data set [2] (0-20 μM Ganetespib with 0-200 μM CB002, CompuSyn) is “synergizes with Ganetespib”. Besides, the Noxa protein expression result in data set [3] (50 μM and 96 μM) was “increased”. Further, the “expression of p21 and DR5” value in data set [3] (12, 25, and 50 μM, 16 hours) was “increase the expression”. For the same compound, the “p53 protein expression level (mutant p53)” value in data set [3] (12, 25, and 50 μM, 16 hours, versus DMSO) is “constant p53 protein expression levels”. Moreover, the “cleaved PARP expression” value is reported as “observed to increase” in data set [3] (12, 25, and 50 μM, versus vehicle); “able to induce the expression of cleaved PARP” in data set [3] (FADD knockdown cells, 24 hours). Also, the “LC3B expression (autophagy marker)” value in data set [3] (50 and 96 μM) is “induce the expression of LC3B”. Also, the Noxa expression entry in data set [3] is “Induction of Noxa expression”. The “mutant p53 protein level” value in data set [3] (24 hours) was “decrease significantly”. The “cleaved caspase 3 and cleaved PARP expression” value in data set [3] (DR5 siRNA knockdown, 50 and 96 μM) was “continued to induce the expression”. Also, the LC3B expression entry in data set [3] (NOXA knock-down cells, 50 and 96 μM) is “failed to induce LC3B expression”. For the same compound, the “c-caspase 3 and cleaved PARP expression” value in data set [3] (NOXA shRNA knockdown, 50 and 96 μM) is on record as “did not induce the expression of apoptotic markers”. For the same compound, the PARP cleavage entry in data set [3] (atg5 siRNA knockdown, 16 and 24 hours) is “complete loss of PARP cleavage”. Besides, the “cleaved caspase 8 and cleaved PARP” value in data set [3] (combination with 50 μM chloroquine, 24 hours) is recorded as “reduced compared to CB002 alone”. Besides, the “expression of p21, DR5 and PARP cleavage” value in data set [3] (p73 siRNA knockdown cells) was “increase the expression of p53 target genes p21 and DR5, and associated PARP cleavage”. Besides, the sub-G1 content in data set [4] (96 μM, 48 hours, parental SW480 (NOXA experiment), DMSO 4.5%) was found to be 19%. This compound showed a sub-G1 population in data set [4] (96 μM, 48 hours, DMSO control 8.7%) of 32.6%. In data set [4] (200 μM, 72 hours), the “increase of cells in sub-G1” value came out at 20%. Also, in data set [4] (72 hours), the sub-G1 fraction result is given as “increased cells in sub-G1 fraction”. Moreover, the p21 protein level entry in data set [5] (8 hours) is “increase moderately”; in data set [5] (24 hours) it was “no consistent difference”. Moreover, in data set [6], the p21 expression entry was “absent”. Further, the PUMA expression entry in data set [6] (8 hours, over control) is recorded as “increased expression”; in data set [6] (24 hours) it was “largely unchanged from control”.
